Experiments:
human TLR7 = human TLR7 (Homo sapiens (Human), UniProt Q9NYK1); assay: TLR7 inhibition reporter assay (HEK-Blue SEAP); type: cell-based; details: HEK-Blue cells overexpressing human TLR7, SEAP reporter, gardiquimod 7.5 μM
human TLR8 = human TLR8 (Homo sapiens (Human), UniProt Q9NR97); assay: TLR8 inhibition reporter assay (HEK-Blue SEAP); details: read-out: TLR8 IC50; HEK-Blue cells overexpressing human TLR8, SEAP reporter, R848 15.9 μM;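 also: SEAP driven by IFN-β minimal promoter carrying NF-κB and AP-1 sites, compounds dosed 0.05 nM to 50 µM for 22 h, inhibition scaled between agonist-plus-DMSO and reference-inhibitor wells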
Chain of human TLR8 (Q9NR97 27-1041): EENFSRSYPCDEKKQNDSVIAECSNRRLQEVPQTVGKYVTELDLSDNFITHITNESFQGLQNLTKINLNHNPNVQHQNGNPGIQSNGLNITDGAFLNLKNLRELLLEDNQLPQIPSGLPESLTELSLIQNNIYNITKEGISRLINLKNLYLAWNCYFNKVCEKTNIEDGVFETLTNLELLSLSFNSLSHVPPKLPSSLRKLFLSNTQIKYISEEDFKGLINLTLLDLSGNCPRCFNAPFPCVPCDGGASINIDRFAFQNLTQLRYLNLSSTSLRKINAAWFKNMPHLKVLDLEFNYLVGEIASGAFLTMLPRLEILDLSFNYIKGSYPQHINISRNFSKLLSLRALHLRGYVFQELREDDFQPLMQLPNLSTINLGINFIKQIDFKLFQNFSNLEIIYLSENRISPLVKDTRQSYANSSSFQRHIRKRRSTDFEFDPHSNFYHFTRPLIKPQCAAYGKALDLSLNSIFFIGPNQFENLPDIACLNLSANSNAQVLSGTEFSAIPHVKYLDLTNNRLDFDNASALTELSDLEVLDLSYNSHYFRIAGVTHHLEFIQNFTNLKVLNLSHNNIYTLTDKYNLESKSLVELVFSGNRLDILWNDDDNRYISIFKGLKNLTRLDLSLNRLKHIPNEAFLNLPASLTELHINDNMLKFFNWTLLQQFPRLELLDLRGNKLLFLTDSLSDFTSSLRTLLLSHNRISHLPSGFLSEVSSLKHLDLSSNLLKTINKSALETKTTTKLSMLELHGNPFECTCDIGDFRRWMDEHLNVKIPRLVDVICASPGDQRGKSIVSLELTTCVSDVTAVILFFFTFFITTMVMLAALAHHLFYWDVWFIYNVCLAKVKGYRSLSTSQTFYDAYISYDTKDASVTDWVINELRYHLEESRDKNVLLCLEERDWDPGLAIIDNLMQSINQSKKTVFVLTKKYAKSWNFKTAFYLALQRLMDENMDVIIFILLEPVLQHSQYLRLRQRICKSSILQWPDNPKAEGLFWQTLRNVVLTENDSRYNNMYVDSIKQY
Experimental: HEK-Blue™-cells (Invivogen) overexpressing human TLR7, TLR8 or TLR9 receptors were used for screening inhibitors of these receptors using an inducible SEAP (secreted embryonic alkaline phosphatase) reporter gene under the control of the IFN-β minimal promoter fused to five NF-κB and AP-1-binding sites. Briefly, cells are seeded into Greiner 384 well plates (15000 cells per well for TLR7, 20,000 for TLR8 and 25,000 for TLR9) and then treated with test compounds in DMSO to yield a final dose response concentration range of 0.05 nM-50 μM. After a 30 minute compound pre-treatment at room temperature, the cells are then stimulated with a TLR7 ligand (gardiquimod at a final concentration of 7.5 μM), TLR8 ligand (R848 at a final concentration of 15.9 μM) or TLR9 ligand (ODN2006 at a final concentration of 5 nM) to activate NF-κB and AP-1 which induce the production of SEAP. After a 22 hour incubation at 37° C., 5% CO2, SEAP levels are determined with the addition of HEK-Blue™ Detection reagent (Invivogen), a cell culture medium that allows for detection of SEAP, according to manufacturer's specifications.

human TLR9 = human TLR9 (Homo sapiens (Human), UniProt Q9NR96); assay: TLR9 inhibition reporter assay (HEK-Blue SEAP); details: read-out: TLR9 IC50; HEK-Blue cells overexpressing human TLR9, SEAP reporter, ODN2006 5 nM;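 also: SEAP driven by an IFN-β minimal promoter with NF-κB and AP-1 sites, read after 22 h, compounds dosed 0.05 nM–50 µM, inhibition scaled between agonist plus DMSO and reference-inhibitor wells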
Chain of human TLR9 (Q9NR96 26-1032): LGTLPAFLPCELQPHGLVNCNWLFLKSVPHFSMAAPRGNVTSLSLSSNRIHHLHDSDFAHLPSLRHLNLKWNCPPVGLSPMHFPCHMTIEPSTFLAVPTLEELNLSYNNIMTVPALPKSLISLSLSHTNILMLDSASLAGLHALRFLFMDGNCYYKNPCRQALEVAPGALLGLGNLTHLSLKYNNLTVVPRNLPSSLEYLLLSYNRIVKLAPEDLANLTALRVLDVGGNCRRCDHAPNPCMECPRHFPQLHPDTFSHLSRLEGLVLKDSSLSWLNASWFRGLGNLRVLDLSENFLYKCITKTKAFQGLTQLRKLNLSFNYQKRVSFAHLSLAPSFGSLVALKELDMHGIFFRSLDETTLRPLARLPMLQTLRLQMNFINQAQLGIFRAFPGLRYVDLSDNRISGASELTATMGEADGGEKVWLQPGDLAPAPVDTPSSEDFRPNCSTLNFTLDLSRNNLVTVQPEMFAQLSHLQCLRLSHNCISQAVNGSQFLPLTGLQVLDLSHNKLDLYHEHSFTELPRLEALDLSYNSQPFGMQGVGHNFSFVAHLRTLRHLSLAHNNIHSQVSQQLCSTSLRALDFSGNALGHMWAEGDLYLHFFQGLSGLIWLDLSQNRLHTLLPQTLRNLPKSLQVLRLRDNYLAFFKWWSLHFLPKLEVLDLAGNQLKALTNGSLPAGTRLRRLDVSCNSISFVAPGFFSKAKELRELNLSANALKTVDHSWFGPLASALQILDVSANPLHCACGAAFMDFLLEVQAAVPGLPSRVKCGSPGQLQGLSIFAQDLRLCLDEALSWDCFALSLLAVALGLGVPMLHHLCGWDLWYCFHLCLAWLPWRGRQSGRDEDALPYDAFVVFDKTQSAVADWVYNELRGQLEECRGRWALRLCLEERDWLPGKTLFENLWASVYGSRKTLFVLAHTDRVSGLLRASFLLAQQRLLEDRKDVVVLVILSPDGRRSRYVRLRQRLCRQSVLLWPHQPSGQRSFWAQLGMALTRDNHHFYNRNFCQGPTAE

Chain of human TLR7 (Q9NYK1 27-1049): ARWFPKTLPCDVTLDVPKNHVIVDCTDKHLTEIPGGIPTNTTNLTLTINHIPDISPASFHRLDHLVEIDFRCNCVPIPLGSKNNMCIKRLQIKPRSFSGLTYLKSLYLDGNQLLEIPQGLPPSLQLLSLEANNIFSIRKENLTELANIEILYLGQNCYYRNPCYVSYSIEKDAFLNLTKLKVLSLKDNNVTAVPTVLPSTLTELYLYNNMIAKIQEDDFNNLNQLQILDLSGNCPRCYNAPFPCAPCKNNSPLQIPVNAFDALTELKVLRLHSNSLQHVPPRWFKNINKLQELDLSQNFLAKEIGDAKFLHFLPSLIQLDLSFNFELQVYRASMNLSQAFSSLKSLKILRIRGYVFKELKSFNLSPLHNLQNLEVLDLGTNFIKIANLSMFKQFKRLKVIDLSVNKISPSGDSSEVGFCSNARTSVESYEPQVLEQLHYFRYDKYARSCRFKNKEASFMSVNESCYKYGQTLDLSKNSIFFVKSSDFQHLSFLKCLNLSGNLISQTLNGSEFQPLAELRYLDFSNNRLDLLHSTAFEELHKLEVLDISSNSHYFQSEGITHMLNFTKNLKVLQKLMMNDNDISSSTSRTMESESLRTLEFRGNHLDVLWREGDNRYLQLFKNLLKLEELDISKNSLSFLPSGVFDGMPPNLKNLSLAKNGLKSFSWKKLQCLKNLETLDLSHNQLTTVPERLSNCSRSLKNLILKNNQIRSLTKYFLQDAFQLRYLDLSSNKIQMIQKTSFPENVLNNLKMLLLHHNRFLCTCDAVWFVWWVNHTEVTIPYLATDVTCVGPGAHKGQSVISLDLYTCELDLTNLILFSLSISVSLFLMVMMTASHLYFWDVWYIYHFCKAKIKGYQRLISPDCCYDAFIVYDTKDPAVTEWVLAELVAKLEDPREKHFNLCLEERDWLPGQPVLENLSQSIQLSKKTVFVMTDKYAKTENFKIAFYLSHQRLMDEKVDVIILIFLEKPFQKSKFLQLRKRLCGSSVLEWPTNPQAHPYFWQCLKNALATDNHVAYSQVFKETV

Structure (SMILES) | IC50 (human TLR7) [nM] | IC50 (human TLR8) [nM] | IC50 (human TLR9) [nM]
Cc1cc(-c2[nH]c3ccc(-c4cnn(C5CCNCC5)c4)nc3c2C(C)C)cn2ncnc12 [Example 735] | 25 | 61 | 262
Cc1cc(-c2[nH]c3ccc(-c4cnn(CCN5CCOCC5)c4)nc3c2C(C)C)cn2ncnc12 [Example 736] | 631 | 269 | > 50000
Cc1c(-c2[nH]c3ccc(N4CC5(CN(C)C5)C4)nc3c2C(C)C)cn2ncnc2c1C [Example 741, 6-(3-isopropyl-5-(6-methyl-2,6-diazaspiro[3.3]heptan-2-yl)-1H-pyrrolo[3,2-b]pyridin-2-yl)-7,8-dimethyl-[1,2,4]triazolo[1,5-a]pyridine] | 1.9 | 6.5 | 3030
Cc1c(-c2[nH]c3ccc(N4CC5(CN(C(=O)CN(C)C)C5)C4)nc3c2C(C)C)cn2ncnc2c1C [Example 743, 1-(6-(2-(7,8-dimethyl-[1,2,4]triazolo[1,5-a]pyridin-6-yl)-3-isopropyl-1H-pyrrolo[3,2-b]pyridin-5-yl)-2,6-diazaspiro[3.3]heptan-2-yl)-2-(dimethylamino)ethan-1-one] | 3.6 | 8.4 | 1880
Cc1c(-c2[nH]c3ccc(N4[C@@H]5CC[C@H]4CN(C(=O)CN(C)C)C5)nc3c2C(C)C)cn2ncnc2c1C [Example 747] | 0.59 | 4.1 | 7380
Cc1c(-c2[nH]c3ccc(N4[C@@H]5CC[C@H]4CN(CCS(C)(=O)=O)C5)nc3c2C(C)C)cn2ncnc2c1C [Example 748] | 7.5 | 15 | 37900
Cc1c(-c2[nH]c3ccc(N4C[C@H]5C[C@@H](C4)N5CCC(N)=O)nc3c2C(C)C)cn2ncnc2c1C [Example 756] | 3.9 | 6 | 9060
Cc1c(-c2[nH]c3ccc(N4C[C@H](C)N(CC(N)=O)[C@@H](C)C4)nc3c2C(C)C)cn2ncnc2c1C [Example 759] | 3.8 | 14 | 38200
Cc1c(-c2[nH]c3ccc(N4C[C@H](C)N(C(=O)CN(C)C)[C@@H](C)C4)nc3c2C(C)C)cn2ncnc2c1C [Example 760] | 4.2 | 27 | 7630
Cc1c(-c2[nH]c3ccc(N4C[C@H](C)N(C(=O)CCN(C)C)[C@@H](C)C4)nc3c2C(C)C)cn2ncnc2c1C [Example 761] | 9 | 14 | 8170
Cc1c(-c2[nH]c3ccc(N4C[C@H](C)N(C(=O)CCN(C)C)C[C@@H]4C)nc3c2C(C)C)cn2ncnc2c1C [Example 789] | 3.2 | 3.7 | 13300
Cc1c(-c2[nH]c3ccc(N4CCN(CCC(N)=O)[C@@H](C)C4)nc3c2C(C)C)cn2ncnc2c1C [Example 791] | 5.3 | 1.1 | 18100

Further lines, results first:

IC50 (human TLR7) [nM] | IC50 (human TLR8) [nM] | IC50 (human TLR9) [nM] | Structure (SMILES)
0.59 | 0.55 | 7770 | Cc1c(-c2[nH]c3ccc(N4C[C@@H](C)NC[C@@H]4C)nc3c2C(C)C)cn2ncnc2c1C [Example 737, 6-(5-((2S,5R)-2,5-dimethylpiperazin-1-yl)-3-isopropyl-1H-pyrrolo[3,2-b]pyridin-2-yl)-7,8-dimethyl-[1,2,4]triazolo[1,5-a]pyridine]
0.46 | 0.89 | 6230 | Cc1c(-c2[nH]c3ccc(N4C[C@@H](C)N(C(=O)CN5CCCC5)C[C@@H]4C)nc3c2C(C)C)cn2ncnc2c1C [Example 738, 1-((2R,5S)-4-(2-(7,8-dimethyl-[1,2,4]triazolo[1,5-a]pyridin-6-yl)-3-isopropyl-1H-pyrrolo[3,2-b]pyridin-5-yl)-2,5-dimethylpiperazin-1-yl)-2-(pyrrolidin-1-yl)ethan-1-one]
0.85 | 1.6 | 5320 | Cc1c(-c2[nH]c3ccc(N4C[C@@H](C)N(C(=O)CCN5CCCC5)C[C@@H]4C)nc3c2C(C)C)cn2ncnc2c1C [Example 739, 1-((2R,5S)-4-(2-(7,8-dimethyl-[1,2,4]triazolo[1,5-a]pyridin-6-yl)-3-isopropyl-1H-pyrrolo[3,2-b]pyridin-5-yl)-2,5-dimethylpiperazin-1-yl)-3-(pyrrolidin-1-yl)propan-1-one]
2.2 | 5.1 | 623 | Cc1c(-c2[nH]c3ccc(N4CC5(CNC5)C4)nc3c2C(C)C)cn2ncnc2c1C [Example 740, 6-(3-isopropyl-5-(2,6-diazaspiro[3.3]heptan-2-yl)-1H-pyrrolo[3,2-b]pyridin-2-yl)-7,8-dimethyl-[1,2,4]triazolo[1,5-a]pyridine]
2.9 | 3.1 | 4580 | Cc1c(-c2[nH]c3ccc(N4CC5(CN(CC(=O)N(C)C)C5)C4)nc3c2C(C)C)cn2ncnc2c1C [Example 742, 2-(6-(2-(7,8-dimethyl-[1,2,4]triazolo[1,5-a]pyridin-6-yl)-3-isopropyl-1H-pyrrolo[3,2-b]pyridin-5-yl)-2,6-diazaspiro[3.3]heptan-2-yl)-N,N-dimethylacetamide]
2 | 7.1 | 3060 | CCN1CC2(C1)CN(c1ccc3[nH]c(-c4cn5ncnc5c(C)c4C)c(C(C)C)c3n1)C2 [Example 744, 6-(5-(6-ethyl-2,6-diazaspiro[3.3]heptan-2-yl)-3-isopropyl-1H-pyrrolo[3,2-b]pyridin-2-yl)-7,8-dimethyl-[1,2,4]triazolo[1,5-a]pyridine]
2.2 | 5.8 | 2450 | Cc1c(-c2[nH]c3ccc(C4CC5(CNC5)C4)nc3c2C(C)C)cn2ncnc2c1C [Example 745, 6-(3-isopropyl-5-(2-azaspiro[3.3]heptan-6-yl)-1H-pyrrolo[3,2-b]pyridin-2-yl)-7,8-dimethyl-[1,2,4]triazolo[1,5-a]pyridine]
1.1 | 10 | 3110 | Cc1c(-c2[nH]c3ccc(C4CC5(C4)CN(C(=O)CCN(C)C)C5)nc3c2C(C)C)cn2ncnc2c1C [Example 746, 1-(6-(2-(7,8-dimethyl-[1,2,4]triazolo[1,5-a]pyridin-6-yl)-3-isopropyl-1H-pyrrolo[3,2-b]pyridin-5-yl)-2-azaspiro[3.3]heptan-2-yl)-3-(dimethylamino)propan-1-one]
0.38 | 0.53 | 10300 | Cc1c(-c2[nH]c3ccc(N4[C@@H](C)CN(C(=O)CN(C)C)C[C@@H]4C)nc3c2C(C)C)cn2ncnc2c1C [Example 752]
0.7 | 1.9 | 5220 | Cc1c(-c2[nH]c3ccc(N4C[C@H](C)N[C@@H](C)C4)nc3c2C(C)C)cn2ncnc2c1C [Example 757]
0.89 | 1.7 | 18200 | Cc1c(-c2[nH]c3ccc(N4C[C@H](C)N(CCC(N)=O)[C@@H](C)C4)nc3c2C(C)C)cn2ncnc2c1C [Example 758]
2.1 | 3.2 | 8300 | Cc1c(-c2[nH]c3ccc(N4C[C@H](C)N(C(=O)CN(C)C)C[C@@H]4C)nc3c2C(C)C)cn2ncnc2c1C [Example 788]
0.42 | 0.85 | 8810 | Cc1c(-c2[nH]c3ccc(N4CCN(C(=O)CCN(C)C)[C@@H](C)C4)nc3c2C(C)C)cn2ncnc2c1C [Example 790]

Source: patent publication US10544143B2, “4-azaindole compounds” (BRISTOL-MYERS SQUIBB COMPANY, priority 2017, dated 2020)
